Results on one compound are retold here after US20160015770A1, “COMPOSITIONS FOR TREATMENT OF RETINAL DETACHMENT” (THE REGENTS OF THE UNIVERSITY OF MICHIGAN, priority 2013, published 2016).

Each structure is given as a SMILES string.

The target of the assay is T1, calpain 1 (Mus musculus, UniProt O35350).
T1 construct: endogenous in cells; host or cells: 661W mouse photoreceptor cell line
T1 sequence (O35350 1-713): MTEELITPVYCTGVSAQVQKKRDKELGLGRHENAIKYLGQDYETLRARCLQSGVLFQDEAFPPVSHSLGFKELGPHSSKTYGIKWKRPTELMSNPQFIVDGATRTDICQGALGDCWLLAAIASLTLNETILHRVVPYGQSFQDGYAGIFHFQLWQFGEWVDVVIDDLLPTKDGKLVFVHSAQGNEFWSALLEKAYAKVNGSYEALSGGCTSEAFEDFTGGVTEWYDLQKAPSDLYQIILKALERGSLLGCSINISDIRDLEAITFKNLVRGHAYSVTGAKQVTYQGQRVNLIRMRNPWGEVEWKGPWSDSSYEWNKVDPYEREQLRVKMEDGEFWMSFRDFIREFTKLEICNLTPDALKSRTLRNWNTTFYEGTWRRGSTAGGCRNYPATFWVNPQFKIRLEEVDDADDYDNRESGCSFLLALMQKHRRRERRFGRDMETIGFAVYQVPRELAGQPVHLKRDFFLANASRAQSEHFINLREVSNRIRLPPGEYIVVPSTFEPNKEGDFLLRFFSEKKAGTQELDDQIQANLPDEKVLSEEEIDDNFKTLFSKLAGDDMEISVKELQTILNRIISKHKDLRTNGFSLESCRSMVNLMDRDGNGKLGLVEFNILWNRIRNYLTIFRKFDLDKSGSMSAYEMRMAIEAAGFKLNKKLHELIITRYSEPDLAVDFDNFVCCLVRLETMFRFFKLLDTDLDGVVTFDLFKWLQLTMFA
T1 sequence (O88456 1-268 partner): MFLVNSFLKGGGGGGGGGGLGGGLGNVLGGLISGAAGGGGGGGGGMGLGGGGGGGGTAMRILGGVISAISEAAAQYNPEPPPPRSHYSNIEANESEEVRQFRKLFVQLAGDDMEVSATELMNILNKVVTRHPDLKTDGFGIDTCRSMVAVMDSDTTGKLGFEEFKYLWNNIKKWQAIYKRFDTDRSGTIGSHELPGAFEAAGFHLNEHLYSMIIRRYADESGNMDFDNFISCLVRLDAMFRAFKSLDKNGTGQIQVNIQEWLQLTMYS
In words: Western blot of calpain 1 specific cleaved alpha-spectrin in 661W cells treated with Fas activating antibody. Format: cell-based. The following applies: 24 hours. As to the method:
The 661W photoreceptor cell line was generously provided by Dr. Muayyad Al-Ubaidi (Department of Cell Biology, University of Oklahoma Health Sciences Center, Oklahoma City, Okla.). The 661W cell line was maintained in Dulbecco's modified Eagle's medium containing 10% fetal bovine serum, 300 mg/L glutamine, 32 mg/L putrescine, 40 μL/L β-mercaptoethanol, and 40 μg/L of both hydrocortisone 21-hemisuccinate and progesterone. The media also contained penicillin (90 units/mL) and streptomycin (0.09 mg/mL). Cells were grown at 37° C. in a humidified atmosphere of 5% CO2 and 95% air.
Retinas from experimental eyes with detachment (detached portion of retina only) and control eyes without detachment were dissected from the RPE-choroid, homogenized, and lysed in buffer containing 10 mM HEPES (pH 7.6), 0.5% IgEPal, 42 mM KCl, 1 mM phenylmethylsulfonyl fluoride, 1 mM EDTA, 1 mM EGTA, 1 mM dithiothreitol, 5 mM MgCl2, and one tablet of protease inhibitors per 10 mL buffer (Complete Mini; Roche Diagnostics GmbH, Madison, Wis.). 661W cells were plated at 150,000 cells per well in six-well culture dishes in growth media. After 24 hours, the cells were washed one time with warmed PBS solution and then placed in growth media without fetal bovine serum. Depending on experimental conditions, 500 ng/mL Fas activating antibody (BD Biosciences, San Jose, Calif.) and various calpain inhibitors including MDG-28170 (Sigma, St. Louis, Mo.), MG-101 (Sigma, St. Louis, Mo.), calpeptin (Santa Cruz Biotechnology, Santa Cruz, Calif.) or equal volume of DMSO was added. Calpain inhibitors were added 1 hour prior to the addition of Fas activating antibody. The cells were incubated for various lengths of time and then lysed and homogenized in lysis buffer. The homogenates were incubated on ice and centrifuged at 22,000 g at 4° C. for 60 minutes. The protein concentration of the supernatant was then determined (DC Protein Assay kit; Bio-Rad Laboratories, Hercules, Calif.). The protein samples were separated on SDS-polyacrylamide gels (Tris-HCl Ready Gels; Bio-Rad Laboratories). After electrophoretic separation, the proteins were transferred onto polyvinylidene fluoride membranes (Immobilon-P; Millipore, Billerica, Mass.). Membranes were then immunoblotted with antibodies according to the manufacturer's instructions. The following antibodies were used: LC3b (Cell Signaling, Beverly, Mass.), Atg5 (Abgent, San Diego, Calif.), Atg12 (Cell Signaling, Beverly, Mass.), calpain 1 (Cell Signaling, Beverly, Mass.), alpha-spectrin (Santa Cruz Biotechnology, Santa Cruz, Calif.), actin (Sigma, St. Louis, Mo.), and GAPDH (Abcam, Cambridge, Mass.).
After determining calpain 1 levels, it was looked to correlate this with calpain activity. […]
A general note: A western blot detects proteins with antibodies after separation by electrophoresis.

As for `CCCC[C@@H](C=O)NC(=O)[C@H](CC(C)C)NC(=O)OCc1ccccc1` [calpeptin], the “relative size of the effect on cleaved alpha-spectrin among the calpain inhibitors” value (Fas activating antibody, two concentrations) is “largest effect”. Also, the cleaved alpha-spectrin levels entry (inhibitor added 1 hour before Fas activating antibody, compared to Fas activation alone) is on record as “decreased”.
